Assay results as given in US20140128357A1, “METHODS OF PRODUCING AND USING BRASSINOSTEROIDS TO PROMOTE GROWTH, REPAIR AND MAINTENANCE OF SKELETAL MUSCLE AND SKIN” (Rutgers University, priority 2010, published 2014).

Tests used:
L6 rat myotubes = assay: Protein degradation, release of acid-soluble [3H]-phenylalanine; type: cell-based; settings: 10 μM; for Protein degradation (% decrease over control): 4 h
Description: In some aspects, cell culture experiments were carried out. Rat L6 skeletal muscle cell line CRL-1458 was obtained from ATCC (Manassas, Va.). Myoblasts were routinely maintained in Dulbecco's modified Eagle's medium (DMEM) containing 10% FBS and 0.1% penicillin-streptomycin at 37° C. and 5% CO2. Cells were subcultured into 24-well plates for protein synthesis, degradation, and cell viability studies and into 6-well plates for Western blot analyses (Greiner Bio One, Monroe, N.C.). Once cells reached 90% confluence, differentiation was induced by lowering the serum concentration to 2%, and medium was changed every 2 days. […] NIH 3T3 murine embryonic fibroblast cell line (ATCC #CCL-92) was maintained in DMEM and 10% FBS at 37° C. in 5% CO2, and passaged every 3-4 days.
In various aspects, protein degradation is measured to determine the effect of brassinosteroid on a particular protein. All known methods for measuring protein degradation are included in the methods of the disclosure. The effect of brassinosteroids on protein degradation was investigated in fully differentiated myotubes as described by Fawcett et al. (Arch. Biochem. Biophys. 385:357-363, 2001) with slight modifications. Fully differentiated myotubes were incubated for 16 h to allow labeling of cellular proteins with 1.5 μCi/mL [^3H]-phenylalanine. […] The incubation was stopped by placing the cells on ice, and protein in the medium was precipitated with 5% trichloroacetic acid. Specific radioactivity of protein-free phenylalanine was quantified using liquid scintillation counter LS 6500 (Beckman Coulter, Fullerton, Calif.) and normalized to mg of total cell protein determined by BCA protein assay (Pierce Biotechnology, Rockford, Ill.).
The bioactivity of HB and its analogs (as shown in Table 3) were also evaluated by measuring decreases in protein degradation in the L6 rat skeletal muscle cells in vitro. Cells were labeled overnight with [^3H]-phenylalanine and subsequently treated for 4 h in triplicate with vehicle (0.1% ethanol) or test compound (10 μM), and protein degradation was assessed as release of acid-soluble [^3H]-phenylalanine into the media normalized by total protein (Table 3).

[1] = test system: 3T3 Swiss fibroblast monolayers; assay: Scratch wound closure in vitro; type: cell-based, mouse; settings: for Scratch wound closure at 5 μM, % of control: 12 h (Table 6); for Wound Closure (% over control): 10 μM, 12 h (Table 4)
Description: 3T3 fibroblasts were seeded into 24-well dishes at a concentration of 3×10^5 cells/ml and cultured to nearly confluent cell monolayers. On the day of the experiment, a linear wound was generated in the monolayer with a sterile 100 μl plastic pipette tip and any cellular debris was removed by washing cells once with sterile PBS. Fresh DMEM medium containing vehicle (0.1% ethanol), positive control (0.5% FBS), or various concentrations of the fractions, sub-fractions or pure compounds was added to a set of 3 wells per dose and incubated for 12 h at 37° C. with 5% CO2. Cells were then visualized with 20 μl of 10% methylene blue in PBS for 5 min. Three representative images of the scratched areas from each well were photographed at 0 and 12 h to estimate the scratch wound closure. Images were analyzed using ImageJ program (NIH, Bethesda, Md.) and % wound closure was calculated relative to vehicle control and was reported as wound closure % over control (Table 4). 3T3 Swiss fibroblast were seeded into 24-well tissue culture at a concentration of 3×10^5 cells/ml and cultured to nearly confluent cell monolayers. Then, a linear wound was generated in the monolayer with a sterile 100 μl plastic pipette tip. Any cellular debris was removed by washing with PBS. DMEM medium with vehicle (0.1% ethanol), FBS (1%, positive control), or various concentrations of brassinosteroids were added to a set of 3 wells per dose and incubated for 12 h at 37° C. with 5% CO2. Cells were visualized in 10% methylene blue for 5 minutes. Three representative images from each well of the scratched areas under each condition were photographed to estimate the relative migration of cells at 0 and 12 h post-treatment. Data were analyzed using ImageJ software available online from the National Institutes of Health (rsbweb.nih.gov/ij/) by calculating the percentage of scratch closure at each dose point relative to control.

Structure (SMILES) | Protein degradation (% decrease over control) (L6 rat myotubes) [%] | decrease in protein degradation vs control levels (L6 rat myotubes; 4 h (FIG. 2C)) [%] | Scratch wound closure at 5 μM, % of control [1] [%] | Scratch wound closure at 5 μM, % of control ([1]; listed as HB) [%] | Wound Closure (% over control) [1] [%] | effect of structural modification on protein degradation activity, in words (L6 rat myotubes) | fibroblast migration activity in words ([1]; 0.1-10 μM, 12 h)
CC[C@@H](C(C)C)[C@H](O)[C@@H](O)[C@@H](C)[C@H]1CC[C@H]2[C@@H]3COC(=O)[C@H]4C[C@H](O)[C@H](O)C[C@]4(C)[C@H]3CC[C@]12C [Compound 1, (22S,23S,24S)-2α,3α,22,23-tetrahydroxy-24 ethyl-β-homo-7-oxo-5α-cholestane-6-one] | −24.1 ± 5.5 | 9.5±0.9 | 30 ± 4.2 | 30±4.2 | 30.2 ± 11.2 |  | 
CC[C@@H](C(C)C)[C@H](O)[C@@H](O)[C@@H](C)[C@H]1CC[C@H]2[C@@H]3CC(=O)[C@H]4C[C@H](O)[C@H](O)C[C@]4(C)[C@H]3CC[C@]12C [Compound 2, (22S,23S,24S)-2α,3α, 22,23-tetrahydroxy-24-ethyl-5α-cholestan-6-one] | −23.1 ± 4.2 |  | 32.9 ± 4.1 |  | 32.9 ± 14.1 |  | 
CC[C@@H](C(C)C)[C@H](O)[C@@H](O)[C@@H](C)[C@H]1CC[C@H]2[C@@H]3CC(=O)N[C@H]4C[C@H](O)[C@H](O)C[C@]4(C)[C@H]3CC[C@]12C [Compound 5, (22S,23S,24S)-2α,3α-22,23-tetrahydroxy-24-ethyl-B-homo-6-aza-5α-cholestan-7-one] | −13.6 ± 3.8 |  | 13.0 ± 0.7 |  |  | only a minor effect on its biological activity | no effect on fibroblast migration
